These results are taken from US20230192705A1, “SHP2 INHIBITORS, COMPOSITIONS AND USES THEREOF” (Betta Pharmaceuticals Co., Ltd, priority 2020, published 2023).

This assay concerns the target T1, SHP2 (Homo sapiens, UniProt Q06124).
T1 sequence (Q06124 1-593): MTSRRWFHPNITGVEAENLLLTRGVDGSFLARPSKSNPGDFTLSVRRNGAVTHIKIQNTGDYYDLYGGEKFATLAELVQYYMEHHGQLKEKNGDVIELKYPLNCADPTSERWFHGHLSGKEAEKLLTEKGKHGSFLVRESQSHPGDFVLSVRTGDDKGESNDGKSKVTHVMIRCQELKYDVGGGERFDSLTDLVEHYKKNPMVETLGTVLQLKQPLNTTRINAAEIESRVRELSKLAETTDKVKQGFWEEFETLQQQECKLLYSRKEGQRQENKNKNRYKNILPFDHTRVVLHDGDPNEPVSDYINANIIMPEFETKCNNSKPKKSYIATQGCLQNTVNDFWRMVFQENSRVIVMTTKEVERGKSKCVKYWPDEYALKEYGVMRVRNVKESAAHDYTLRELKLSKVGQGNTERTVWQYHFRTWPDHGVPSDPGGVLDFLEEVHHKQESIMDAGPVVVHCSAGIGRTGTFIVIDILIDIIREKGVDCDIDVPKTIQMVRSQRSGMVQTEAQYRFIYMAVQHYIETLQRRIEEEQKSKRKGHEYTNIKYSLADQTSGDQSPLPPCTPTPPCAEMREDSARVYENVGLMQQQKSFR
In words: SHP2 allosteric inhibitor enzyme activity assay (DiFMUP fluorescence). It is filed as biochemical. As to conditions: class symbols. An excerpt:
SHP2 is activated by the binding of a bis-tyrosyl-phosphorylated peptide to its Src homologous 2 (SH2) domain. This subsequent activation step leads to the release of the automatic inhibition interface of SHP2, which in turn activates the SHP2 protein tyrosine phosphatase (PTP) and can be used for substrate recognition and reaction catalysis. The catalytic activity of SHP2 was monitored using the alternative DiFMUP in a rapid fluorescence assay format.
Assay procedures are as follows:
(1) Compound Formulation:
The compound of the present invention (10 mM stock solution) was diluted to a suitable multiple with 100% DMSO and assay buffer, and the final test concentration of the compound of the present invention was 1 μM, 0.333 μM, 0.111 μM, 0.0370 μM, 0.0124 μM, 0.00412 μM, 0.00137 μM, 0.00046 μM, 0.00015 μM, 0.00 μM;
(2) Preparation of Enzyme Reaction Working Fluid:
SHP2 enzyme activity was performed using a final reaction volume of 50 μL and the following assay buffer conditions in 96-well black polystyrene plates (flat bottom, low flange, non-bonding surface) (Perki Elmer, Cat #6005270) at room temperature: 60 mM HEPES, 75 mM NaCl, 75 mM KCl, 0.05% BRIJ-35, 1 mM EDTA, 5 mM DTT.
(3) Enzyme Catalytic Reaction and Data Monitoring:
Compounds of the present invention were added to the corresponding 96-well plates, and no compound and enzyme were provided as blank test wells. SHP2 Activating Peptide (IRS1_pY1172 (dPEG8)pY1222) was placed on ice for melting, and 0.5 μM was added per well, then 0.2 ng SHP2 protein samples were added to corresponding well plates, and incubated at room temperature for 1 hour. Substrate DiFMUP (Invitrogen, Cat #D6567) was added to the reaction at room temperature for 1 hour. Fluorescence signals were monitored using an enzyme reader (Envision, Perki Elmer) using excitation wavelengths and emission wavelengths of 340 nm and 450 nm, respectively.
Inhibition %=[1−(Conversion_sample−Conversion_min)/(Conversion_max−Conversion_min)]*100% Calculation formula: […]
where: Conversion_sample is the mean reading of the sample wells; Conversion_min is the mean reading of blank control wells, representing the reading of the wells without enzyme; Conversion_max is the mean of positive control wells, representing the reading of the wells without inhibitor.
The dose-response curve is fitted with GraphPad Prism software and IC50 was calculated by the “log[inhibitor] vs. response-variable slope” program.

A value given as a limit tells only on which side of the number the result lay.

In turn, `Cn1ncc2c1CC(C)(C)C=C2c1n[nH]c2nc(N3CCC4(CC3)Cc3ccccc3[C@H]4N)[nH]c(=O)c12` [Example 150, (S)-6-(1-amino-1,3-dihydrospiro[indene-2,4′-piperidin]-1′-yl)-3-(1,6,6-trimethyl-6,7-dihydro-1H-indazol-4-yl)-1,5-dihydro-4H-pyrazolo[3,4-d]pyrimidin-4-one] returned an IC50 not above 20 nM. `N[C@@H]1c2ccccc2CC12CCN(c1nc3[nH]nc(C4=CCOc5cc(Cl)ccc54)c3c(=O)[nH]1)CC2` [Example 167, (S)-6-(1-amino-1,3-dihydrospiro[indene-2,4′-piperidin]-1′-yl)-3-(7-chloro-2H-chromen-4-yl)-1,5-dihydro-4H-pyrazolo[3,4-d]pyrimidin-4-one] showed a half-maximal inhibitory concentration (IC50) not above 20 nM. The molecule `N[C@@H]1c2ccccc2CC12CCN(c1nc3[nH]nc(C4(c5ccnc(NC6CC6)c5Cl)CC4)c3c(=O)[nH]1)CC2` [Example 72, (S)-6-(1-amino-1,3-dihydrospiro[indene-2,4′-piperidin]-1′-yl)-3-(1-(3-chloro-2-(cyclopropylamino)pyridin-4-yl)cyclopropyl)-1,5-dihydro-4H-pyrazolo[3,4-d]pyrimidin-4-one] had a concentration for half-maximal inhibition (IC50) not above 20 nM. `CC1(C)C=C(c2n[nH]c3nc(N4CCC5(CC4)Cc4ccccc4C5N)[nH]c(=O)c23)c2sc(N)nc2C1` (stereo not drawn) [Example 130, 6-(1-amino-1,3-dihydrospiro[indene-2,4′-piperidin]-1′-yl)-3-(2-amino-5,5-dimethyl-4,5-dihydrobenzo[d]thiazol-7-yl)-1,5-dihydro-4H-pyrazolo[3,4-d]pyrimidin-4-one]: the concentration for half-maximal inhibition (IC50) lay within 20 to 60 nM.

Take `N[C@@H]1c2ccccc2CC12CCN(c1nc3[nH]nc(C4=CCC(F)(F)c5ncccc54)c3c(=O)[nH]1)CC2` [Example 169, (S)-6-(1-amino-1,3-dihydrospiro[indene-2,4′-piperidin]-1′-yl)-3-(8,8-difluoro-7,8-dihydroquinolin-5-yl)-1,5-dihydro-4H-pyrazolo[3,4-d]pyrimidin-4-one]: the IC50 is not above 20 nM.

On to `CC1(C)C=C(c2n[nH]c3nc(N4CCC5(CC4)Cc4ccccc4[C@H]5N)[nH]c(=O)c23)c2ccc(Cl)nc2C1` [Example 161, (S)-6-(1-amino-1,3-dihydrospiro[indene-2,4′-piperidin]-1′-yl)-3-(2-chloro-7,7-dimethyl-7,8-dihydroquinolin-5-yl)-1,5-dihydro-4H-pyrazolo[3,4-d]pyrimidin-4-one], for which the IC50 is not above 20 nM.

As for `N[C@@H]1c2ccccc2CC12CCN(c1nc3[nH]nc(C4(c5cocn5)CC4)c3c(=O)[nH]1)CC2` [Example 85, (S)-6-(1-amino-1,3-dihydrospiro[indene-2,4′-piperidin]-1′-yl)-3-(1-(oxazol-4-yl)cyclopropyl)-1,5-dihydro-4H-pyrazolo[3,4-d]pyrimidin-4-one], the IC50 was not above 20 nM. Take `C[C@@H]1OCC2(CCN(c3ncc(C4(c5ccccc5)CC4)nc3C(N)=O)CC2)[C@@H]1N` [Example 259, 3-((3S,4S)-4-amino-3-methyl-2-oxa-8-azaspiro[4.5]decan-8-yl)-6-(1-phenylcyclopropyl)pyrazine-2-carboxamide]: the concentration for half-maximal inhibition (IC50) was more than 60 nM. `COc1ccccc1C1(c2n[nH]c3nc(N4CCC5(CC4)CO[C@@H](C)[C@H]5N)[nH]c(=O)c23)CC1` [Example 306, 6-((3S,4S)-4-amino-3-methyl-2-oxa-8-azaspiro[4.5]decan-8-yl)-3-(1-(2-methoxyphenyl)cyclopropyl)-1,5-dihydro-4H-pyrazolo[3,4-d]pyrimidin-4-one]: the IC50 lay within 20 to 60 nM. In the case of `Cn1ccc(C2(c3n[nH]c4nc(N5CCC6(CC5)Cc5ccccc5[C@H]6N)[nH]c(=O)c34)CC2)c(Cl)c1=O` [Example 73, (S)-6-(1-amino-1,3-dihydrospiro[indene-2,4′-piperidin]-1′-yl)-3-(1-(3-chloro-1-methyl-2-oxo-1,2-dihydropyridin-4-yl)cyclopropyl)-1,5-dihydro-4H-pyrazolo[3,4-d]pyrimidin-4-one] it was not above 20 nM; in that of `CC1(C)C=C(c2n[nH]c3nc(N4CCC5(CC4)Cc4ccccc4[C@H]5N)[nH]c(=O)c23)c2cnc(C3CC3)nc2C1` [Example 148, (S)-6-(l-amino-1,3-dihydrospiro[indene-2,4'-piperidin]-1′-yl)-3-(2-cyclopropyl-7,7-dimethyl-7,8-dihydroquinazolin-5-yl)-1,5-dihydro-4H-pyrazolo[3,4-d]pyrimidin-4-one], 20 to 60 nM. In turn, `C[C@@H]1OCC2(CCN(c3nc4[nH]nc(C5(c6ccccc6)CC5)c4c(=O)[nH]3)CC2)[C@@H]1N` [Example 270, 6-((3S,4S)-4-amino-3-methyl-2-oxa-8-azaspiro[4.5]decan-8-yl)-3-(1-phenylcyclopropyl)-1,5-dihydro-4H-pyrazolo[3,4-d]pyrimidin-4-one] had a 50% inhibitory concentration (IC50) of 20 to 60 nM. The molecule `Cn1c(N2CCC3(CC2)Cc2ccccc2[C@H]3N)nc2[nH]nc(C3(c4ccccc4)CCC3)c2c1=O` [Example 91, (S)-6-(1-amino-1,3-dihydrospiro[indene-2,4′-piperidin]-1′-yl)-5-methyl-3-(1-phenylcyclobutyl)-1,5-dihydro-4H-pyrazolo[3,4-d]pyrimidin-4-one] registered an IC50 not above 20 nM. For `Cn1cc(-c2cccc(C3(c4n[nH]c5nc(N6CCC7(CC6)Cc6ccccc6[C@H]7N)[nH]c(=O)c45)CC3)c2)cn1` [Example 36, (S)-6-(1-amino-1,3-dihydrospiro[indene-2,4′-piperidin]-1′-yl)-3-(1-(3-(1-methyl-1H-pyrazol-4-yl)phenyl)cyclopropyl)-1,5-dihydro-4H-pyrazolo[3,4-d]pyrimidin-4-one], the 50% inhibitory concentration (IC50) was not above 20 nM. In turn, `Cn1ccc(-c2cc(C3(c4n[nH]c5nc(N6CCC7(CC6)Cc6ccccc6[C@H]7N)[nH]c(=O)c45)CC3)ccn2)n1` [Example 88, (S)-6-(1-amino-1,3-dihydrospiro[indene-2,4′-piperidin]-1′-yl)-3-(1-(2-(1-methyl-1H-pyrazol-3-yl)pyridin-4-yl)cyclopropyl)-1,5-dihydro-4H-pyrazolo[3,4-d]pyrimidin-4-one] had an IC50 not above 20 nM. In the case of `CCOC(=O)Nc1cccc(C2(c3n[nH]c4nc(N5CCC6(CC5)Cc5ccccc5[C@H]6N)[nH]c(=O)c34)CC2)c1` [Example 41, ethyl (S)-(3-(1-(6-(1-amino-1,3-dihydrospiro[indene-2,4′-piperidin]-1′-yl)-4-oxo-4,5-dihydro-1H-pyrazolo[3,4-d]pyrimidin-3-yl)cyclopropyl)phenyl)carbamate] it was not above 20 nM; in that of `N[C@@H]1c2ccccc2CC12CCN(c1nc3[nH]nc(C4(c5ccnc(-c6ccccc6)c5)CC4)c3c(=O)[nH]1)CC2` [Example 86, (S)-6-(1-amino-1,3-dihydrospiro[indene-2,4′-piperidin]-1′-yl)-3-(1-(2-phenylpyridin-4-yl)cyclopropyl)-1,5-dihydro-4H-pyrazolo[3,4-d]pyrimidin-4-one], not above 20 nM.

`COc1ccc2c(c1)[C@@H](N)C1(CCN(c3nc4[nH]nc(C5(c6ccccc6)CC5)c4c(=O)[nH]3)CC1)C2` [Example 192, (S)-6-(1-amino-6-methoxy-1,3-dihydrospiro[indene-2,4′-piperidin]-1′-yl)-3-(1-phenylcyclopropyl)-1,5-dihydro-4H-pyrazolo[3,4-d]pyrimidin-4-one] registered an IC50 not above 20 nM.
